{"source": "patent US12290575B2", "about": "“Fluorescent compound comprising a fluorophore conjugated to a pH-triggered polypeptide” (UNIVERSITY OF RHODE ISLAND BOARD OF TRUSTEES, priority 2016, dated 2025)", "key": {"[1]": {"details": "residue X in AcWL-X-LL, relative to virtual glycine; Arg and Lys from pH 1 data; cited from earlier work"}, "[2]": {"details": "current use; cited from earlier work"}, "[3]": {"details": "cited from earlier work"}, "[4]": {"details": "high dose of 5 mg/kg of body weight; cited from earlier work"}, "[5]": {"assay": "Fluorescence imaging of blood flow in mice (ear, leg, blood samples)", "type": "in vivo, nude mice", "details": "for fluorescent signal in blood samples: blood withdrawn 5-120 min after IV; for imaging of blood vessels (ear, leg): 100 μL of 40 μM IV, 5, 30, 60, 90, 120 min", "procedure": "Adult female nude mice (Envigo), 20 g in body mass were used in the study. Fluorescent constructs were given as a single tail vein injection in amounts of 100 μL of 40 μM in PBS. Imaging of mouse ear and leg was performed at 5, 30, 60, 90 and 120 min after construct administration. At 5, 30, 60, 90 and 120 min after construct administration 5 μL of blood was withdrawn from tail (and mixed with 5 μL of anticoagulating solution to preserve blood) while animal was under anesthesia. Mice were euthanized immediately after last imaging point (120 min). Blood collected from all animals was deposited on the glass slide, dried and imaged. Imaging was performed using Novadaq clinical imaging instrument. Autofluorescence was established by imaging mouse with no injection of fluorescent constructs (the level of autofluorescence signal was insignificant compared to the signal after the constructs administration)."}, "[6]": {"tested_on": "urothelial carcinoma in human bladder specimens", "assay": "Ex vivo NIR fluorescence imaging of human bladder specimens after instillation", "procedure": "22 urothelial carcinoma patients that were scheduled for radical cystectomy were selected over a twelve month period. After radical cystectomy, bladder specimens were immediately removed and irrigated 3 times for 5 min via catheter with non-buffered saline and instilled and incubated with 80 ml of 8 μM or 32.8 μg/ml (unless otherwise is stated, see notes to Table 8) of ICG-Var3 construct or ICG-Cys in PBS pH 7.4 containing 10 mM D-glucose for 60 minutes. Then, the unbound constructs were removed by rinsing with 80 ml of saline solution 3-5 times, the bladder was irrigated thoroughly with buffered saline and opened using a Y incision on the anterior wall. Using a da Vinci Si near-infrared fluorescence imaging system (Firefly®), ex vivo fluorescent and white light imaging of the entire bladder and its parts was performed. The fluorescent spots were marked and standard pathological analysis was carried out to explore the correlation between appearance of fluorescent signal and cancer lesions.\nThe specimen was sectioned and submitted after 24 hour fixation in 10% phosphate-buffered formalin according to the standard institutional grossing manual, with emphasis on the marked areas of the bladder. The sections were processed for routine histology into paraffin-embedded blocks. […]\nStatistical parameters were calculated according to the following equations: […]"}, "4T1 tumors": {"tested_on": "4T1 tumors", "assay": "NIR fluorescence imaging of 4T1 tumors in mice after IV or IP injection", "type": "in vivo, BALB/cAnNHsd mice", "details": "16 h", "procedure": "Adult female nude mice and female BALB/cAnNHsd mice (Envigo), 20-25 g in body mass were used in the study. Mouse mammary cancer 4T1 cells were subcutaneously implanted in the right flank (8×10^5 cells/0.1 mL/flank) of adult female BALB/cAnNHsd mice. Rat bladder cancer AY27 cells were subcutaneously implanted in the right flank (8×10^5 cells/0.1 mL/flank) of adult female nude mice. When tumors reached approximately 5-6 mm in diameter, single tail vein injection or single intraperitoneal injection of fluorophore-pHLIP® solutions in PBS were performed. Fluorescent constructs were used in amounts of 100 μL of 40 μM or 100 μL of 20 μM, or 100 μL of 10 μM, or 100 μL of 5 μM. Imaging of mouse was performed at 16 hours after constructs administration. Skin was removed from the tumor site just before imaging while animal was under gas anesthesia, and mice were euthanized immediately after imaging. Tumor, kidney and liver were harvested, imaged and used for histopathological analysis. Imaging was performed using Stryker clinical imaging instrument. Autofluorescence was established by imaging mouse with no injection of fluorescent constructs (the level of autofluorescence signal was insignificant compared to the signal after the constructs administration)."}}, "note": "Where a SMILES comes first, the peptide text is derived from it. Where no end group is shown, it is not given here. The star is where a group is joined. X1 = CC1(C)C(/C=C/C=C/C=C/C=C2/N(CCCCCC(=O)NCCN3C(=O)CC(*)C3=O)c3ccc4ccccc4c3C2(C)C)=[N+](CCCCS(=O)(=O)[O-])c2ccc3ccccc3c21; ICG maleimide = indocyanine green maleimide", "data": [{"compound": "C[C@H](N)C(=O)O", "note": "[Ala, Alanine]", "values": [{"measurement": "ΔGX^cor (solvation free energy of the side chain)", "setting": "[1]", "result": "+0.65 kcal/mol"}]}, {"compound": "N=C(N)NCCC[C@H](N)C(=O)O", "note": "[Arg, Arginine]", "values": [{"measurement": "ΔGX^cor (solvation free energy of the side chain)", "setting": "[1]", "result": -0.66, "unit": "kcal/mol"}]}, {"compound": "NC(=O)C[C@H](N)C(=O)O", "note": "[Asn, Asparagine]", "values": [{"measurement": "ΔGX^cor (solvation free energy of the side chain)", "setting": "[1]", "result": "+0.30 kcal/mol"}]}, {"compound": "CC1(C)C(/C=C/C=C/C=C/C=C2\\N(CCCCS(=O)(=O)[O-])c3ccc4ccccc4c3C2(C)C)=[N+](CCCCS(=O)(=O)[O-])c2ccc3ccccc3c21.[Na+]", "note": "[ICG, indocyanine green]", "values": [{"measurement": "imaging time used for free ICG", "setting": "[2]", "result": "2 to 5", "unit": "min"}, {"measurement": "blood clearance", "setting": "[3]; half lifetime is just few minutes", "result": "fast blood clearance"}, {"measurement": "metabolites", "setting": "[3]; in vivo", "result": "no known metabolites"}, {"measurement": "time after which it binds to the regional lymph nodes", "setting": "[3]; injected outside blood vessels", "result": "1 to 2", "unit": "h"}, {"measurement": "time of appearing unconjugated in the bile after injection", "setting": "[3]; intravenous injection, depends on liver vascularization and function", "result": "about 8 min"}, {"measurement": "toxic effects", "setting": "[4]", "result": "No significant toxic effects"}]}, {"compound": "CC[C@H](C)[C@H](NC(=O)[C@@H]1CCCN1C(=O)[C@H](CC(N)=O)NC(=O)[C@H](CCC(N)=O)NC(=O)[C@H](CCC(=O)O)NC(=O)[C@H](CSC1CC(=O)N(CCNC(=O)CCCCCN2/C(=C/C=C/C=C/C=C/C3=[N+](CCCCS(=O)(=O)[O-])c4ccc5ccccc5c4C3(C)C)C(C)(C)c3c2ccc2ccccc32)C1=O)NC(=O)[C@H](C)N)C(=O)N[C@@H](Cc1ccc(O)cc1)C(=O)N[C@@H](Cc1c[nH]c2ccccc12)C(=O)N[C@@H](C)C(=O)N[C@@H](CCCNC(=N)N)C(=O)N[C@@H](Cc1ccc(O)cc1)C(=O)N[C@@H](C)C(=O)N[C@@H](CC(N)=O)C(=O)N[C@@H](Cc1c[nH]c2ccccc12)C(=O)N[C@@H](CC(C)C)C(=O)N[C@@H](Cc1ccccc1)C(=O)N[C@H](C(=O)N[C@H](C(=O)N1CCC[C@H]1C(=O)N[C@@H](CC(C)C)C(=O)N[C@@H](CC(C)C)C(=O)N[C@@H](CC(C)C)C(=O)N[C@@H](CC(C)C)C(=O)N[C@@H](CC(N)=O)C(=O)N[C@@H](CC(C)C)C(=O)N[C@@H](C)C(=O)N[C@@H](CC(C)C)C(=O)N[C@@H](CC(C)C)C(=O)N[C@H](C(=O)N[C@@H](CC(=O)O)C(=O)N[C@@H](C)C(=O)N[C@@H](CC(=O)O)C(=O)N[C@@H](CCC(=O)O)C(=O)NCC(=O)N[C@H](C(=O)O)[C@@H](C)O)C(C)C)[C@@H](C)O)[C@@H](C)O", "note": "(stereo partly drawn) [ICG-NpHLIP®] (H-AC(X1)EQNPIYWARYANWLFTTPLLLLNLALLVDADEGT-OH)", "values": [{"measurement": "fluorescent signal in blood samples", "setting": "[5]", "result": "significantly reduced signal"}]}, {"compound": "CC(C)C[C@H](NC(=O)[C@H](Cc1ccc(O)cc1)NC(=O)[C@H](C)NC(=O)[C@H](CCCNC(=N)N)NC(=O)[C@H](Cc1c[nH]c2ccccc12)NC(=O)[C@@H]1CCCN1C(=O)[C@H](CC(N)=O)NC(=O)[C@H](CCC(N)=O)NC(=O)[C@H](CC(=O)O)NC(=O)[C@H](CC(=O)O)NC(=O)[C@H](CSC1CC(=O)N(CCNC(=O)CCCCCN2/C(=C/C=C/C=C/C=C/C3=[N+](CCCCS(=O)(=O)[O-])c4ccc5ccccc5c4C3(C)C)C(C)(C)c3c2ccc2ccccc32)C1=O)NC(=O)[C@H](C)N)C(=O)N[C@@H](CC(=O)O)C(=O)N[C@@H](CC(C)C)C(=O)N[C@@H](CC(C)C)C(=O)N[C@@H](Cc1ccccc1)C(=O)N1CCC[C@H]1C(=O)N[C@H](C(=O)N[C@@H](CC(=O)O)C(=O)N[C@H](C(=O)N[C@@H](CC(C)C)C(=O)N[C@@H](CC(C)C)C(=O)N[C@@H](CC(C)C)C(=O)N[C@@H](CC(=O)O)C(=O)N[C@@H](CC(C)C)C(=O)N[C@@H](CC(C)C)C(=O)N[C@@H](Cc1c[nH]c2ccccc12)C(=O)N[C@@H](C)C(=O)O)[C@@H](C)O)[C@@H](C)O", "note": "(stereo partly drawn) [ICG-Var3] (H-AC(X1)DDQNPWRAYLDLLFPTDTLLLDLLWA-OH)", "values": [{"measurement": "adverse morphological findings in specimens after incubation", "setting": "[6]", "result": "did not show any adverse morphological findings"}, {"measurement": "fluorescent signal in tumor relative to kidney and liver", "setting": "4T1 tumors", "result": "signal in tumor was higher than in kidney and similar or slightly less than in liver"}, {"measurement": "fluorescent signal in blood samples", "setting": "[5]", "result": "persistence of strong fluorescent signal within 2 hours"}]}, {"compound": "CC[C@H](C)[C@H](NC(=O)[C@@H]1CCCN1C(=O)[C@H](CC(N)=O)NC(=O)[C@H](CCC(N)=O)NC(=O)[C@H](CCC(=O)O)NC(=O)[C@H](CSC1CC(=O)N(CCNC(=O)CCCCCN2/C(=C/C=C/C=C/C=C/C3=[N+](CCCCS(=O)(=O)[O-])c4ccc5ccccc5c4C3(C)C)C(C)(C)c3c2ccc2ccccc32)C1=O)NC(=O)[C@H](C)N)C(=O)N[C@@H](Cc1ccc(O)cc1)C(=O)N[C@@H](Cc1c[nH]c2ccccc12)C(=O)N[C@@H](C)C(=O)N[C@@H](CCCNC(=N)N)C(=O)N[C@@H](Cc1ccc(O)cc1)C(=O)N[C@@H](C)C(=O)N[C@@H](CC(=O)O)C(=O)N[C@@H](Cc1c[nH]c2ccccc12)C(=O)N[C@@H](CC(C)C)C(=O)N[C@@H](Cc1ccccc1)C(=O)N[C@H](C(=O)N[C@H](C(=O)N1CCC[C@H]1C(=O)N[C@@H](CC(C)C)C(=O)N[C@@H](CC(C)C)C(=O)N[C@@H](CC(C)C)C(=O)N[C@@H](CC(C)C)C(=O)N[C@@H](CC(=O)O)C(=O)N[C@@H](CC(C)C)C(=O)N[C@@H](C)C(=O)N[C@@H](CC(C)C)C(=O)N[C@@H](CC(C)C)C(=O)N[C@H](C(=O)N[C@@H](CC(=O)O)C(=O)N[C@@H](C)C(=O)N[C@@H](CC(=O)O)C(=O)N[C@@H](CCC(=O)O)C(=O)NCC(=O)N[C@H](C(=O)O)[C@@H](C)O)C(C)C)[C@@H](C)O)[C@@H](C)O", "note": "(stereo partly drawn) [ICG-WT pHLIP®]", "values": [{"measurement": "fluorescent signal in blood samples", "setting": "[5]", "result": "persistence of strong fluorescent signal within 2 hours"}]}, {"compound": "N[C@@H](CO)C(=O)O", "note": "[Ser, Serine]", "values": [{"measurement": "ΔGX^cor (solvation free energy of the side chain)", "setting": "[1]", "result": "+0.69 kcal/mol"}]}, {"compound": "C[C@@H](O)[C@H](N)C(=O)O", "note": "[Thr, Threonine]", "values": [{"measurement": "ΔGX^cor (solvation free energy of the side chain)", "setting": "[1]", "result": "+0.90 kcal/mol"}]}, {"compound": "ICG-Hum pHLIP®: ICG maleimide conjugated to the Cys of Hum pHLIP® GCDNNEGFFATLGGEIPLWSDVVLAIEG (SEQ ID NO: 446) (GC(ICG maleimide)DNNEGFFATLGGEIPLWSDVVLAIEG)", "values": [{"measurement": "imaging of blood vessels (ear, leg)", "setting": "[5]", "result": "slow in reaching the best imagibility condition and was fast in decaying"}]}, {"compound": "IR800-WT pHLIP®: IR800 maleimide conjugated to the Cys of WT pHLIP® (SEQ ID NO: 444) (AC(IR800 maleimide)EQNPIYWARYADWLFTTPLLLLDLALLVDADEGT)", "values": [{"measurement": "imaging of blood vessels (ear, leg)", "setting": "[5]", "result": "better in imaging of blood vessels, however not nearly as good as ICG-WT and ICG-Var3 pHLIP®s"}]}]}
